Assay results taken from PMC10151334, “Anti-proliferative potential and oxidative reactivity of thermo-oxidative degradation products of stigmasterol and stigmasteryl esters for human intestinal cells” (Scientific Reports, 2023).

Tests used:
CCD 841 CoN cells [1] = assay: MultiTox-Fluor Multiplex Cytotoxicity Assay (live and dead cell fluorescence); assay type: cell-based
Experimental: The normal human diploid CCD 841 CoN cell line (ATCC® CRL-1790™) isolated from colon mucosa was obtained from American Type Culture Collection (ATCC, Manassas, VA, USA). Cells were cultured in Dulbecco’s Modified Eagle’s Medium (DMEM, Sigma-Aldrich) supplemented with fetal bovine serum (FBS; Gibco BRL, Grand Island, NY, USA) to a final concentration of 10% and maintained at 37 °C in a humidified atmosphere with 5% CO2.
In the cytotoxicity experiments, CCD 841 CoN cells were seeded in 96-well plates at an initial density of 2.0 × 10^4 cells/cm^2 and incubated for 24 h. […] Control culture contained the vehicle at the amount corresponding to the sample analyzed.
The Multitox-Fluor Multiplex Cytotoxicity Assay (Promega GmbH, Mannheim, Germany) was applied to determine the relative number of live and dead cells in the CCD 841 CoN cell cultures treated with the analyzed compounds. The assay determined live- and dead-cell protease activities using two fluorogenic peptide substrates, cell-permeant (glycyl-phenylalanyl-amino fluorocoumarin; GF-AFC) and cell-impermeant (bis-alanyl-alanyl-phenylalanyl-rhodamine 110; bis-AAF-R110). After treatment, the cells were incubated with GF-AFC and bis-AAF-R110 substrates for 60 min at 37 °C. The live- and dead-cell proteases produced AFC and R110 products, measured using a Tecan M200 Infinite microplate reader (Tecan Group Ltd., Männedorf, Switzerland) at different excitation (400 nm and 485 nm) and emission (505 nm and 520 nm) spectra. The assay was conducted according to the manufacturer’s instructions.

[2] = test system: caspase 3/7 activity in CCD 841 CoN cells; assay: Caspase 3/7 activity assay (APO-One Homogeneous); assay type: cell-based, human; conditions: 40 μg/mL, 24 h
Experimental: CCD 841 CoN cells were grown in black 96-well plates at an initial cell density of 2 × 10^4 cells/cm^2 for 24 h under standard culture conditions. The cell cultures were treated for 24 h with ST, ST-OA, and ST-LA at a 40 μg/mL dose. After treatment, caspase-3/7 activity was determined using the APO-One Homogeneous Caspase-3/7 Assay (Promega Corporation, Wisconsin, USA), which is based on the proteolytic cleavage of C-terminal side of aspartate residue in the DEVD peptide substrate by caspase 3/7 into fluorescent rhodamine 110 (R110). Analysis of caspase 3/7 activity was carried out following the manufacturer's instructions. Briefly, the cells after the treatment were incubated at room temperature with Apo-ONE® Caspase-3/7 Reagent—bifunctional cell lysis/caspase activity buffer combined with the pro-fluorescent caspase-3/7 substrate Z-DEVD-R110. After 4-h incubation, fluorescence was measured at an excitation wavelength of 485 nm and an emission wavelength of 530 nm using a Tecan M200 Infinite microplate reader. Data obtained were normalized to cellular protein content, quantified by BCA assay (Pierce® BCA Protein Assay Kit, Thermo Scientific Inc., USA) according to the manufacturer's protocol.

CCD 841 CoN cells [3] = assay: DNA damage detection, comet assay (SCGE); assay type: cell-based, human; conditions: 40 μg/mL, 48 h
Experimental: The cells were grown at 6-well plates at the established density and standard culture conditions and exposed to the non-heated and heated ST, ST-OA, and ST-LA for 48 h. The non-treated cells and cells treated with H2O2 (100 μM, 30 min) to induce oxidative DNA damage constituted the negative and positive controls, respectively. After treatment, cells were analyzed for DNA damage using a single cell gel electrophoresis (SCGE) called comet assay, described in detail previously. Briefly, harvested cells suspended in low melting point agarose were put onto microscope slides pre-coated with normal melting point agarose and subjected sequentially to lysis, alkaline electrophoresis (pH > 13), and neutralization ([…]). The cells were stained with SYBRGold (Molecular Probes), viewed under a fluorescence microscope (Axiovert 200, Zeiss, Carl Zeiss, Gottingen, Germany), and analyzed using CometScore™ software (TriTek Corp., Sumerduck, VA, USA). At least 100 cells were analyzed on a microscope slide; 300 cells were considered for DNA damage detection in one sample. Data were expressed as the mean percentage of DNA content in the comet tail. […] Based on the comets' categorization, the total comet score (TCS) was calculated according to the formula: TCS = 0(n) + 1(n) + 2(n) + 3(n) + 4(n), where “n” is the number of cells in each comet class (0–4)[45].

S. typhimurium TA100 = conditions: 40 μg/mL, without metabolic activation
Experimental: (§1) Potential mutagenicity or pro-mutagenicity of non-heated and heated ST, ST-LA, and ST-OA was determined using the bacterial reverse mutation assay (Ames test) with Salmonella enterica subsp. enterica ser. typhimurium tester strains TA98, TA100, and TA102, which were obtained from the Polish Collection of Microorganisms of the Institute of Immunology and Experimental Therapy of the Polish Academy of Sciences in Wroclaw.
(§2) Mutagenicity experiments were performed in the liquid pre-incubation assay, without and with metabolic activation by supplying Aroclor 1254-induced rat liver microsomal fraction (S9, Sigma-Aldrich) with NADP and cofactors for NADPH-supported oxidation, according to the procedure described by Mortelmans and Zeiger[39]. Briefly, reaction mixtures, consisting of 12-h bacterial culture, non-heated and heated compound (ST, ST-LA, ST-OA) at a concentration of 40 μg, 0.2 M phosphate buffer (pH 7.4), and alternatively S9 activating mixture, were pre-incubated at 37 °C for 20 min. […] The mutagen, 2-aminoanthracene (5 μg) (Sigma-Aldrich), was a positive control in pro-mutagenicity experiments. After pre-incubation, the reaction mixtures were added to the top agar supplemented with traces of histidine and biotin and poured onto the plates covered with minimum glucose agar. The cultures were incubated for 48 h at 37 °C, and the number of revertants (His+) colonies was counted manually.
(§3) Compounds with MI ≥ 2 can be recognized as potentially mutagenic.

S. typhimurium TA98 = assay: Bacterial reverse mutation assay (Ames test), strain TA98; conditions: 40 μg/mL, with microsomal fraction (+ S9)
Experimental: as §1, §2, §3

[4] = Thermo-oxidative treatment at 180 °C for 8 h, degradation of the compound; assay type: physicochemical; conditions: heated at 180 °C for 8 h under oxygen atmosphere
Experimental: ST, ST-OA, and ST-LA (50 mg each) were placed separately in glass vials and heated at 180 °C for 8 h under an oxygen atmosphere. After thermo-oxidative treatment, the tested compounds were stored at − 20 °C until chemical and biological analyses. The non-heated and heated ST and its esters were analyzed to detect degradation products and oxyderivatives. Analytical methods were described in the article published previously.

Q: Which “decrease in the viable cell number” value (CCD 841 CoN cells [1]; 1 μg/mL, first cytotoxic effects) does the source give for `CC[C@H](/C=C/[C@@H](C)[C@H]1CC[C@H]2[C@@H]3CC=C4C[C@@H](O)CC[C@]4(C)[C@H]3CC[C@]12C)C(C)C` [ST, Stigmasterol] here?
A: 10%

Q: And the “reduction in number of viable cells / relative cell viability” value (CCD 841 CoN cells [1]; 40 μg/mL, 48-h treatment)?
A: approximately 80%

Q: And the “concentration at which first cytotoxic effects were observed” value (CCD 841 CoN cells [1]; 48-h treatment)?
A: 1000 ng/mL

Q: And the “caspase 3/7 activity” value [2]?
A: Boosted caspase 3/7 activity

Q: And the “comets category 2 (medium DNA damage, 25 to 45% DNA in tail), share of cell population” value (CCD 841 CoN cells [3])?
A: 3.5%

Q: What about the “total comet score (TCS), comet class distribution vs control” value (CCD 841 CoN cells [3]) of the same compound?
A: no significant differences

Q: What about the “Mutagenic index TA100” value (S. typhimurium TA100) of the same compound?
A: 1.9

Q: And the “increase in number of revertant colonies TA98” value (S. typhimurium TA98)?
A: 1.6 fold

Q: And the “Sterol moiety depletion (%)” value [4]?
A: 80.4 ± 13.5%
